According to patent US4695545A, “Culture and process for producing A41030 antibiotics” (Eli Lilly and Company, priority 1984, dated 1987):
Several values for one entry are separate records, joined by “and”; a condition that tells them apart may be missing. Equal entries are not always repeated.

Assays:
[1] = tested on: Peptococcus asaccharolyticus; test: MIC anaerobic bacteria, agar-dilution; type: cell-based; conditions: Peptococcus asaccharolyticus 1302
Enterobacter cloacae = test: MIC aerobic bacteria, standard agar-dilution assay; type: cell-based
S. pyogenes [2] = test: Experimental bacterial infection in mice, subcutaneous ED50; type: in vivo; conditions: two doses subcutaneously
Protocol: (§1) All of the A41030 factors tested have shown in vivo antimicrobial activity against experimental bacterial infections. When two doses of test compound were administered subcutaneously to mice in illustrative infections, the activity observed is measured as an ED50 value [effective dose in mg./kg. to protect fifty percent of the test animals: See Warren Wick, et al., J. Bacteriol. 81, 233-235 (1961)].

S. pneumoniae = test: as above; type: in vivo; conditions: two doses subcutaneously
Protocol: as §1

Staph. aureus = test: as above; type: in vivo; conditions: two doses subcutaneously
Protocol: as §1

Fusobacterium symbiosum = test: MIC anaerobic bacteria, agar-dilution; type: cell-based; conditions: Fusobacterium symbiosum 1470
Serratia marcescens = test: MIC aerobic bacteria, standard agar-dilution assay; type: cell-based; conditions: Serratia marcescens X99, 24 hours
Staphylococcus aureus = test: MIC aerobic bacteria, standard agar-dilution assay; type: cell-based
Clostridium difficile [3] = test: MIC anaerobic bacteria, agar-dilution; type: cell-based; conditions: Clostridium difficile 2994; agar-dilution (Table 9)
[4] = tested on: Peptostreptococcus anaerobius; test: MIC anaerobic bacteria, agar-dilution; type: cell-based; conditions: Peptostreptococcus anaerobius 1428
Streptococcus pyogenes = test: MIC aerobic bacteria, standard agar-dilution assay; type: cell-based; conditions: Streptococcus pyogenes C203, 24 hours
Escherichia coli = test: MIC aerobic bacteria, standard agar-dilution assay; type: cell-based
Clostridium difficile [5] = test: MIC against Clostridium difficile strains, agar-dilution; type: cell-based
Source text: The A41030 antibiotic factors A, B, C, D, E, F, and G, are also active against a number of strains of Clostridium difficile, as determined by the agardilution method.

[6] = tested on: Staphylococcus epidermidis; test: MIC aerobic bacteria, standard agar-dilution assay; type: cell-based
[7] = tested on: Bacteroides melaninogenicus; test: MIC anaerobic bacteria, agar-dilution; type: cell-based; conditions: Bacteroides melaninogenicus 2736
Salmonella typhi = test: MIC aerobic bacteria, standard agar-dilution assay; type: cell-based
Solubility in solvents = type: physicochemical; conditions: qualitative
Source text: As many as seven antibiotic factors are recovered from the fermentation and are obtained as a mixture, the A41030 complex. It will be recognized that the ratio of the factors in the A41030 complex will vary, depending upon the fermentation conditions used. The individual factors A, B, C, D, E, F, and G are separated and isolated as individual compounds, as hereinafter described.

Haemophilus influenzae = test: MIC aerobic bacteria, standard agar-dilution assay; type: cell-based
Bacteroides corrodens = test: MIC anaerobic bacteria, agar-dilution; type: cell-based; conditions: Bacteroides corrodens 1874
Klebsiella pneumoniae = test: MIC aerobic bacteria, standard agar-dilution assay; type: cell-based; conditions: Klebsiella pueumoniae X68, 24 hours
Peptococcus prevoti = test: MIC anaerobic bacteria, agar-dilution; type: cell-based; conditions: Peptococcus prevoti 1281
Bacteroides fragilis = test: MIC anaerobic bacteria, agar-dilution; type: cell-based
Propionibacterium acnes [8] = test: MIC against Propionibacterium acnes strains, 24-hour agar-dilution; type: cell-based
Source text: Antibiotic A41030 factors A, B and C have been tested and found to be active against a genus of anaerobic bacteria identified as Propionibacterium acnes.

[9] = tested on: Fusobacterium necrophorum; test: MIC anaerobic bacteria, agar-dilution; type: cell-based; conditions: Fusobacterium necrophorum 6054A
Bacteroides vulgatis = test: MIC anaerobic bacteria, agar-dilution; type: cell-based; conditions: Bacteroides vulgatis 1211
Citrobacter freundii = test: MIC aerobic bacteria, standard agar-dilution assay; type: cell-based; conditions: Citrobacter freundii CF17, 24 hours
S. pyogenes [10] = test: In vivo oral activity against S. pyogenes in mice
Propionibacterium acnes [11] = test: MIC anaerobic bacteria, agar-dilution; type: cell-based; conditions: Propionibacterium acnes 79; agar-dilution (Table 9)
[12] = tested on: Streptococcus sp. Group D; test: MIC aerobic bacteria, standard agar-dilution assay; type: cell-based
Clostridium perfringens = type: cell-based; conditions: Clostridium perfringens 81; agar-dilution

## A41030 factor B
[1]
  MIC: ≤ 0.25 µg/mL
Enterobacter cloacae; Enterobacter cloacae 265A, 24 hours
  MIC: 128 µg/mL
Enterobacter cloacae; Enterobacter cloacae EB5, 24 hours
  MIC: 128 µg/mL
S. pyogenes [2]
  ED50: 1.4 mg/kg
S. pneumoniae
  ED50: 1.4 mg/kg
Staph. aureus
  ED50: < 0.43 mg/kg
Fusobacterium symbiosum
  MIC: 1.0 µg/mL
Serratia marcescens
  MIC: 128 µg/mL
Staphylococcus aureus; Staphylococcus aureus S13E, agar-dilution, 24 hours
  MIC: 0.125 µg/mL
Staphylococcus aureus; in µg/mL
  MIC: 0.125 and 0.25
Clostridium difficile [3]
  MIC: 32 µg/mL
[4]
  MIC: ≤ 0.25 µg/mL
Streptococcus pyogenes
  MIC: 0.25 µg/mL
Escherichia coli; Escherichia coli EC14, 24 hours
  MIC: 128 µg/mL
Escherichia coli; Escherichia coli N10, 24 hours
  MIC: 128 µg/mL
Escherichia coli; Escherichia coli TEM, 24 hours
  MIC: 128 µg/mL
Clostridium difficile [5]; Clostridium difficile 78
  MIC: 0.5 µg/mL
Clostridium difficile [5]; Clostridium difficile 107B
  MIC: 0.5 µg/mL
Clostridium difficile [5]; Clostridium difficile 111F
  MIC: 1.0 µg/mL
Clostridium difficile [5]; Clostridium difficile 1153
  MIC: 1.0 µg/mL
Clostridium difficile [5]; Clostridium difficile 2634
  MIC: 1.0 µg/mL
Clostridium difficile [5]; Clostridium difficile 3424-5B
  MIC: 1.0 µg/mL
Clostridium difficile [5]; Clostridium difficile 3816
  MIC: 1.0 µg/mL
Clostridium difficile [5]; Clostridium difficile 3950D
  MIC: 1.0 µg/mL
Clostridium difficile [5]; Clostridium difficile 6890
  MIC: 1.0 µg/mL
Clostridium difficile [5]; Clostridium difficile 8484
  MIC: 1.0 µg/mL
Clostridium difficile [5]; Clostridium difficile A-194
  MIC: 1.0 µg/mL
Clostridium difficile [5]; Clostridium difficile A-195
  MIC: 1.0 µg/mL
Clostridium difficile [5]; Clostridium difficile A-196
  MIC: 1.0 µg/mL
Clostridium difficile [5]; Clostridium difficile A-279
  MIC: 1.0 µg/mL
Clostridium difficile [5]; Clostridium difficile A-280
  MIC: 0.5 µg/mL
Clostridium difficile [5]; Clostridium difficile A-281
  MIC: 1.0 µg/mL
Clostridium difficile [5]; Clostridium difficile WAL-2112
  MIC: 1.0 µg/mL
Clostridium difficile [5]; Clostridium difficile WAL-3657
  MIC: 1.0 µg/mL
Clostridium difficile [5]; Clostridium difficile WAL-4268
  MIC: 0.5 µg/mL
[6]; Staphylococcus epidermidis EPI1, 24 hours
  MIC: 0.125 µg/mL
[6]; Staphylococcus epidermidis EPI2, 24 hours
  MIC: 0.5 µg/mL
[7]
  MIC: 4 µg/mL
Salmonella typhi; Salmonella typhi 1335, 24 hours
  MIC: > 128 µg/mL
Salmonella typhi; Salmonella typhi X514, 24 hours
  MIC: > 128 µg/mL
Solubility in solvents
  solubility (solvents): soluble in the same solvents as factor A
Haemophilus influenzae; Haemophilus influenzae 251, 24 hours
  MIC: 2 µg/mL
Haemophilus influenzae; Haemophilus influenzae Brun, 24 hours
  MIC: 8 µg/mL
Bacteroides corrodens
  MIC: 64 µg/mL
Klebsiella pneumoniae
  MIC: 128 µg/mL
Peptococcus prevoti
  MIC: ≤ 0.25 µg/mL
Bacteroides fragilis; Bacteroides fragilis 111
  MIC: 64 µg/mL
Bacteroides fragilis; Bacteroides fragilis 1877
  MIC: 32 µg/mL
Bacteroides fragilis; Bacteroides fragilis 1936B
  MIC: 32 µg/mL
Propionibacterium acnes [8]; P. acnes strain 44
  MIC: 0.06 µg/mL
Propionibacterium acnes [8]; P. acnes strain 79
  MIC: 0.06 µg/mL
Propionibacterium acnes [8]; P. acnes strain 101
  MIC: 0.06 µg/mL
Propionibacterium acnes [8]; P. acnes strain 103
  MIC: 0.06 µg/mL
Propionibacterium acnes [8]; P. acnes strain 104
  MIC: 0.25 µg/mL
Propionibacterium acnes [8]; P. acnes strain 105
  MIC: 0.06 µg/mL
Propionibacterium acnes [8]; P. acnes strain 106
  MIC: 0.06 µg/mL
Propionibacterium acnes [8]; P. acnes strain 107
  MIC: 0.06 µg/mL
Propionibacterium acnes [8]; P. acnes strain 5170
  MIC: ≤ 0.03 µg/mL
Propionibacterium acnes [8]; P. acnes strain 5176
  MIC: 0.06 µg/mL
Propionibacterium acnes [8]; P. acnes strain 5187
  MIC: 0.06 µg/mL
Propionibacterium acnes [8]; P. acnes strain 5191
  MIC: 0.06 µg/mL
Propionibacterium acnes [8]; P. acnes strain 5197
  MIC: 0.06 µg/mL
Propionibacterium acnes [8]; P. acnes strain 5226
  MIC: 0.5 µg/mL
Propionibacterium acnes [8]; P. acnes strain 5227
  MIC: 0.06 µg/mL
Propionibacterium acnes [8]; P. acnes strain 5228
  MIC: 0.5 µg/mL
Propionibacterium acnes [8]; P. acnes strain 5229
  MIC: 0.25 µg/mL
Propionibacterium acnes [8]; P. acnes strain 5246
  MIC: 0.125 µg/mL
Propionibacterium acnes [8]; P. acnes strain 5292
  MIC: 0.06 µg/mL
[9]
  MIC: 8 µg/mL
Bacteroides vulgatis
  MIC: 32 µg/mL
Citrobacter freundii
  MIC: 128 µg/mL
S. pyogenes [10]
  in vivo oral activity: > 300 mg./kg.×2
Propionibacterium acnes [11]
  MIC: 16 µg/mL
[12]; Streptococcus sp. Group D 9960, 24 hours
  MIC: 1 µg/mL
[12]; Streptococcus sp. Group D X66, 24 hours
  MIC: 1 µg/mL
Clostridium perfringens
  MIC: 0.5 µg/mL
